The text below walks through data of patent US7371396B2, “Dermatological and cosmetic compositions” (Relivia SRL, priority 2001, dated 2008).

SMILES strings stand for the structures.

For series [1] the following is noted: Nomeir et al., Drug Metab Dispos 20(2):198-204, 1992; cited from earlier work.
In series [2] the test system is patients suffering from severe disabling atopic dermatitis (AD). Put plainly: Test in vivo with atopic dermatitis subjects (SCORAD system). Details: species or system human. On the procedure: Experiments were carried out on patients (n=20) of both sexes, of age above 18 years, suffering from severe disabling atopic dermatitis (AD) unresponsive to the current topical treatments.
All patients were subjected to complete blood count and measurements of renal and hepatic functions prior to treatment. Patients who had been systemically treated two months previously with corticoids, antibiotics, psoralenes and other immunosuppressants or with UV were excluded. Patients were supposed not to use any corticoid topically.
Material—A commercially available formulation Triderm Lenil (ICIM International srl, Gallarate, Italy) was used as such (formulation I) or with the addition of 1×10^−2 mol (0.33 g) of Furfuryl palmitate (formulation II).
Triderm Lenil ingredients: aqua, petrolatum, paraffinnum liquidum, dimethicone, laureth-9, C12-C15 alkyl benzoate, soy sterol, phenyl trimethicone, cetearyl alcohol, ribes nigrum, bisabolol, tocopheryl acetate, dimethicone copolyol, capryloyl glycine, glycyrrhetinc acid, superoxide dismutase, phytosphingosine, polyquaternium-7, sodium carbomer, hydroxypropyl guar, disodium EDTA, farnesol, sodium chloride.
Treatment—Out of 20 patients, 10 were included in the furfuryl palmitate-treated group […] and 10 in the control group (formulation I). […] Patients were divided in two groups and treated twice a day for one months either with the Furfuryl palmitate-containing cream or with the placebo cream (control group). Evaluations—The progress of the disease was monitored with the SCORAD system (Dermatology 1993; 186: 23-31) drafted by European Task Force on Atopic Dermatitis (European Society of Pediatric Dermatology, Bordeaux, September 1990) with further modification by Hanifin and Rajka, thus by monitoring 3 criteria: • A) Lesione spread: analysis of surface involvement was performed during the clinical examination by drawing the involved areas on the evaluation sheet, then calculate the proportion of involved surface area segment by segment. For example, if ¾th of the right lower limb is interested by AD, the corresponding score is of about 7/9. • B) Grading of intensity: carried out in a chosen representative area in patients with localized lesions. In patients with areas varying in severity, a representative area of mean involvement is chosen. Dryness should be evaluated in a remote area of non-inflammatory skin. The elementary lesions were classified in the following manifestation: a) Erythema b) Edema/papulation c) Oozing/crusting d) Excoriation e) Lichenification, wherein each item is scored on a scale of 0 to 3, with the total for the intensity criteria is based on a maximum of 18 • C) Subjective signs: by looking at the two most representative items concerning the quality of life of patients during the 3 previous days, i.e. pruritus and insomnia. The patient and/or one of their relatives expresses the intensity of pruritus or insomnia using a visual analog scale graded between 0 and 10.
At the beginning of the treatment, the body area affected by eczema was 69% on the average in all patients. […] At the end of the treatment, the mean scores for itching decreased from 2.3 to 0.6 and for sleep disorders from 7.9 to 1.0. only in the furfuryl palmitate-treated patients.

The mark [3] stands for this setting: at the end of the treatment, 10 patients in the treated group.

`O=Cc1ccco1` [furfural]: the “toxicity compared with furfuryl alcohol” value in series [1] is on record as “at least twice as toxic as the furfuryl alcohol”.

A word on the melting point: it is the temperature, or range, at which the solid turns liquid. Turning to `CCCCCCCCCCCCCCCC(=O)OCc1ccco1` [furfuryl palmitate, Furfuryl Palmitate], the melting point was in the range of 31 to 33 °C. In series [2] (after the first two weeks of treatment, cream with furfuryl palmitate (formulation II) twice a day, decreased from 57.0 (SEM 1.6 n=10) at start), the “mean of the values concerning the different clinical symptoms (SCORAD)” value came out at 21.5. Further, the “mean score for itching” value in series [2] (at the end of the treatment (one month, twice a day), decreased from 2.3) turned out to be 0.6. Also, the “mean score for sleep disorders” value in series [2] (at the end of the treatment (one month, twice a day), decreased from 7.9) stood at 1.0. Moreover, in series [2] (setting [3]), the “number of treated patients with significant improvements of all the considered parameters” value is reported as 8 and the “treated patients with improvement limited to skin scaling” value is reported as “two of them only showed improvements concerning skin scaling”. The “body area affected by eczema” value in series [2] (reached during treatment, twice a day for one month, 69% on the average in all patients at the beginning) is 27%.
